Broadly, the IC50 is the concentration at which inhibition is half-maximal. A higher IC50 goes with a need for much substance.

Data on 11 molecules can be found in ChEMBL document CHEMBL1155182, “Diphenylmethylene hydroxamic acids as selective class IIa histone deacetylase inhibitors” (Bioorg Med Chem Lett, 2009).

The target of assay [1] is Histone deacetylase 5 (Homo sapiens, UniProt Q9UQL6).
Description: Inhibition of human recombinant N-terminal FLAG-tagged HDAC5 (620-1122) expressed in baculovirus after 10 mins by fluorimetric analysis
Assay [2] has as its target Histone deacetylase 4 (Homo sapiens, UniProt P56524).
Description: Inhibition of human recombinant N-terminal FLAG-tagged HDAC4 (612-1034) expressed in baculovirus after 10 mins by fluorimetric analysis
The target in assay [3] is T1, Histone deacetylase 7 (Homo sapiens, UniProt Q8WUI4).
T1 sequence (Q8WUI4 whole entry): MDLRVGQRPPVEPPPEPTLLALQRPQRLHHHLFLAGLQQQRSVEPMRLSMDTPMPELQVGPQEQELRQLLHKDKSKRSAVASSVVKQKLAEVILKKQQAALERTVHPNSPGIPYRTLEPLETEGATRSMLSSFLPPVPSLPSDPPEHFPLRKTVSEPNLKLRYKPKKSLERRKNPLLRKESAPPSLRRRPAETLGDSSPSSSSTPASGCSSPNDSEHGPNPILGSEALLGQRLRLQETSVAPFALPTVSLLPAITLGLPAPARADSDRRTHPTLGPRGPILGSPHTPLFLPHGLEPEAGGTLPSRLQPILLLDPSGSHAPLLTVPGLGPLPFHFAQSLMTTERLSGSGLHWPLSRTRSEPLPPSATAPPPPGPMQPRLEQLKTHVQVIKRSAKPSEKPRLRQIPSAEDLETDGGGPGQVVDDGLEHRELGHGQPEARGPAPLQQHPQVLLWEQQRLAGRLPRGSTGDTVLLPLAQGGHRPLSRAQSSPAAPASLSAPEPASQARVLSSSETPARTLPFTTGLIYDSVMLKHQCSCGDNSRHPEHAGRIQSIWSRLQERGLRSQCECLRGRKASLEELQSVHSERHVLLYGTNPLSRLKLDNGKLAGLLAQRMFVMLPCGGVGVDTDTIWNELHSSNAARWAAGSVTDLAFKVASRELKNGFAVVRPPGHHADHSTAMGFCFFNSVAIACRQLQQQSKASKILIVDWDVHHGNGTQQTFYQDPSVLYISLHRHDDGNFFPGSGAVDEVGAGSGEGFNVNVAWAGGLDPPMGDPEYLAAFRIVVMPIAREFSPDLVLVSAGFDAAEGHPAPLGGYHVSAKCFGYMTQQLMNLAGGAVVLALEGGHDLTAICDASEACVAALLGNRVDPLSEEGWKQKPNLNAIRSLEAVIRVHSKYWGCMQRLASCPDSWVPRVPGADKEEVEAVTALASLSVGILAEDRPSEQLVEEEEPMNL
Description: Inhibition of human recombinant N-terminal FLAG-tagged HDAC7 (438-915) expressed in baculovirus after 10 mins by fluorimetric analysis

In assay [4] the target is Histone deacetylase. As to conditions: hek-293t.
Description: Inhibition of class 1 HDAC in HEK293T cells after 16 hrs by whole cell assay
Assay [5] concerns the target Histone deacetylase. As to conditions: hek-293t. The source holds these as a separate data set.
Description: Inhibition of class 2a HDAC in HEK293T cells after 16 hrs by whole cell assay

Sequence of Histone deacetylase 5 (Q9UQL6 whole entry): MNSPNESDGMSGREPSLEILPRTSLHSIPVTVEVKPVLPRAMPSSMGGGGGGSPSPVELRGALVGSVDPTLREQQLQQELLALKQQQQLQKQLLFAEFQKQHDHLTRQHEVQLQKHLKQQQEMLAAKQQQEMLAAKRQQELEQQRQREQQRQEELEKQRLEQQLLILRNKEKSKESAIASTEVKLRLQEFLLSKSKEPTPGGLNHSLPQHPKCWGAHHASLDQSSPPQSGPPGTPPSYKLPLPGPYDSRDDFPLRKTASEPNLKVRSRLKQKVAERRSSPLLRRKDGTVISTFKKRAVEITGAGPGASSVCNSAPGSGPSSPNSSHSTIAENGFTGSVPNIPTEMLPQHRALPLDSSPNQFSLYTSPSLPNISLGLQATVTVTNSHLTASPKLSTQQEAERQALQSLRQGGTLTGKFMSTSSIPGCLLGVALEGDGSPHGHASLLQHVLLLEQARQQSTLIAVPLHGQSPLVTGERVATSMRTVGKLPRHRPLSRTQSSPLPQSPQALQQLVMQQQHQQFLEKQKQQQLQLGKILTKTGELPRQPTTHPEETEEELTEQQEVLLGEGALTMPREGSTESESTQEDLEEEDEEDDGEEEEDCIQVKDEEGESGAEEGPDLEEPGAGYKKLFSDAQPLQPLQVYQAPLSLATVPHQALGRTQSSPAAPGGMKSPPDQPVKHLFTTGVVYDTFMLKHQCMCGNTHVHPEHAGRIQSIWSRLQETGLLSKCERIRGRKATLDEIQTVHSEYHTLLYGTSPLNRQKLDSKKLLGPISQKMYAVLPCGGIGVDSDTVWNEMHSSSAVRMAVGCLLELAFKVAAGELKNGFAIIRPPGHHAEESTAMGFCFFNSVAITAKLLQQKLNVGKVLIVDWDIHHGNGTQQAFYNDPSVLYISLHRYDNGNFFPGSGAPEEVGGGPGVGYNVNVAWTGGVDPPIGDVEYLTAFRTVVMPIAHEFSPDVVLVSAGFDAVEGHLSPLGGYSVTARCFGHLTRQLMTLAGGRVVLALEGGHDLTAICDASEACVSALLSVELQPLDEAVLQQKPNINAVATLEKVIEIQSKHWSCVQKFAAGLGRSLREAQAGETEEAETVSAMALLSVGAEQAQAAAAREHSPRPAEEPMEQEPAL
Sequence of Histone deacetylase 4 (P56524 whole entry): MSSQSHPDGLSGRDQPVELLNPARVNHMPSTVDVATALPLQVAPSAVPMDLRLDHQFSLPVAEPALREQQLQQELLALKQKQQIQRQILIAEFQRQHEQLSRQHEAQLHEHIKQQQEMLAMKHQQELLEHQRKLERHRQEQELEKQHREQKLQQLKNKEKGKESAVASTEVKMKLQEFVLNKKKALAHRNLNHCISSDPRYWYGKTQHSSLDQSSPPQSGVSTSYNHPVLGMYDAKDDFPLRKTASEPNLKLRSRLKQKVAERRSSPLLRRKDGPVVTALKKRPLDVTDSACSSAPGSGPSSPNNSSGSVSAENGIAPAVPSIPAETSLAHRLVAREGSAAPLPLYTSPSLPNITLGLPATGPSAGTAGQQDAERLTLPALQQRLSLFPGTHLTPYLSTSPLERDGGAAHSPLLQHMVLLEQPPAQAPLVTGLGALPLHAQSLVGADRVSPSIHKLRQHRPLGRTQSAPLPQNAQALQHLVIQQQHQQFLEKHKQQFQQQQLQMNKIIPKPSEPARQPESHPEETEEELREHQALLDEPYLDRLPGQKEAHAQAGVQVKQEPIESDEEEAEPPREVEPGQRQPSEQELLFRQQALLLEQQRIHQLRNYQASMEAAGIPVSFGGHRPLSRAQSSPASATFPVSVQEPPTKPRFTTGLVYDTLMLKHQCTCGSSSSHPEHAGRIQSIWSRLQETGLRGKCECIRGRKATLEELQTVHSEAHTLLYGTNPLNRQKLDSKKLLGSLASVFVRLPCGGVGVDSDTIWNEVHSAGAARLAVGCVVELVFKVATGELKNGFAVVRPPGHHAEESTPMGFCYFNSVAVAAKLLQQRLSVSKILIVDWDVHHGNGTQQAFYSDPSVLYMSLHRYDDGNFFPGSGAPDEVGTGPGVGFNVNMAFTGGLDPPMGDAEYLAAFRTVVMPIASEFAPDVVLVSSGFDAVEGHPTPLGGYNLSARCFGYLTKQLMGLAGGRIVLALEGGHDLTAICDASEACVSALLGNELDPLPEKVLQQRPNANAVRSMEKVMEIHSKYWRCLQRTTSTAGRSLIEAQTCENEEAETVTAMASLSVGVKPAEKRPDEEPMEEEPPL

Turning to `CN1c2ccccc2C(C(=O)NO)c2ccccc21`, the IC50 in assay [1] came out at 470 nM; in assay [2] it was 1910 nM.

Consider `O=C(NO)C(c1ccc(Cl)cc1)c1ccc(Cl)cc1`, for which the IC50 in assay [1] came out at 210 nM; in assay [2], 960 nM; in assay [3] it was 1400 nM.

For `CC(C(=O)NO)c1ccccc1` (stereo not drawn), the IC50 in assay [1], in assay [2] and in assay [3] was over 10000 nM in each case.

On to `O=C(NO)C(c1ccc(F)cc1)c1ccc(F)cc1`, for which the IC50 in assay [4] was over 50000 nM; in assay [1] it was 280 nM; in assay [2], 1100 nM; in assay [5] it was 3500 nM; in assay [3], 1760 nM.

In the case of `CS(=O)(=O)Nc1ccc(C(C(=O)NO)c2ccc(NS(C)(=O)=O)cc2)cc1`, the IC50 in assay [4] was over 50000 nM; in assay [1], over 10000 nM; in assay [2], over 10000 nM; in assay [5] it was over 50000 nM; in assay [3], over 10000 nM.

Take `O=C(NO)C(c1cccc(F)c1)c1cccc(F)c1`: the values for the IC50 in assay [1] and in assay [2] were 90 nM and 700 nM, respectively.

Take `O=C(NO)C(Cc1ccccc1)c1ccccc1` (stereo not drawn): the 50% inhibitory concentration (IC50) in assay [1], in assay [2] and in assay [3] was over 10000 nM in each case.

Consider `O=C(CC(c1ccccc1)c1ccccc1)NO`, for which the half-maximal inhibitory concentration (IC50) in assay [1], in assay [2] and in assay [3] was over 10000 nM each time.

Regarding `O=C(NO)C1c2ccccc2Cc2ccccc21`, the 50% inhibitory concentration (IC50) in assay [1] is 1460 nM; in assay [2] it was 2320 nM.

For the molecule `O=C(NO)C(c1ccc2c(c1)CCO2)c1ccc2c(c1)CCO2`, the IC50 in assay [4] is over 50000 nM; in assay [1] it was 110 nM; in assay [2] it was 210 nM; in assay [5], 900 nM; in assay [3], 110 nM.

As for `CC(C(=O)NO)(c1ccccc1)c1ccccc1`, the IC50 in assay [4] is over 50000 nM; in assay [1], 1200 nM; in assay [2], 4500 nM; in assay [5] it was 16000 nM; in assay [3], 4800 nM.
